These results are taken from PMC6332226, “Potent PPARγ Ligands from Swietenia macrophylla Are Capable of Stimulating Glucose Uptake in Muscle Cells” (Molecules, 2015).

The test system of assay [1] is C2C12 muscle cells. The experiment in a line: Glucose uptake assay with 2-NBDG. As to conditions: 2 µM compound, 60 min treatment. The assay is classed as cell-based. The source says:
(§1) Figure 6 The compounds affected the distribution of GLUT4 proteins and facilitated glucose uptake in the C2C12 muscle cells. The GLUT4 proteins were visualized via the green fluorescent FITC labeled-GLUT4 antibody. […] The white arrows show the presence of GLUT4 near the plasma membrane, and the red arrows show the presence of GLUT4 within the nucleus. The figures denote the time lapse (m = minutes) after treatment. The images were captured using a LSM710 laser scanning microscope with a 63X oil immersion objective (Carl Zeiss, Oberkochen, Germany); (F) The amount of 2-NBDG uptake in the cells after treatment 6OA, DS and Sw or insulin was quantified at OD 510 nm. The fold increase was plotted against the treated concentration of natural compounds. The symbol * denotes a significant difference at p < 0.05 compared with DMSO (Tukey’s test, n = 6), DMSO = 1.
C2C12 cells were grown and differentiated in 96-well culture plates. The differentiated C2C12 muscle cells were treated with DMSO, insulin, and S. macrophylla compounds for 60 min in DMEM + 0.1% (w/v) BSA. After washing three times with Krebs-Ringer Phosphate H (KRPH) buffer + 0.1% (w/v) BSA, the cells were incubated with 100 μM 2-NBDG for 15 min. After washing three times with KRPH buffer + 0.1% (w/v) BSA, the uptake of 2-NBDG was observed under a fluorescence microscope, and the fluorescence of 2-NBDG was measured with a microplate reader (Perkin Elmer, Waltham, MA, USA).

Assay [2] concerns differentiated 3T3-L1 adipocyte cells. In words: mRNA expression of PPARγ and adipogenic markers by quantitative RT-PCR. The assay is classed as cell-based. The conditions noted are these: 2 µM compound, 7 days; for PPARγ mRNA expression, fold elevation: vs DMSO; for expression levels of adipogenic markers (adiponectin, adipsin, PPARγ, GLUT4): 50 nM rosiglitazone or 1 μM insulin, normalized to β-actin, DMSO = 1. On the procedure: Figure 5 The analysis of PPARγ and selected adipogenic gene expression in differentiated 3T3-L1 adipocyte cells with quantitative RT-PCR. […] The expression values were normalized against a housekeeping gene, β-actin.
For the gene expression study, mature 3T3-L1 adipocytes were lysed 7 days after the induction of cellular differentiation. The total RNA samples were prepared according to the manufacturer's protocol (TRIzol reagent, Invitrogen Life Technologies, Carlsbad, CA, USA). The mRNA expression of the target genes was measured by quantitative RT-PCR with an iCycler iQ5 PCR Thermal Cycler (Bio-Rad Laboratories, Hercules, CA, USA). The primers for the adipogenesis-related genes, adiponectin, adipsin, GLUT4 and PPARγ, were designed using Primer 3 software (Table 1). Real-time PCR was performed according to the manufacturer’s protocol (SYBR-Green One-Step Quantitative RT-PCR). Briefly, 5 ng of total RNA, 50 nM of each primer, iScript RT enzyme and the universal SYBR Green reaction mix (Bio-Rad Laboratories) were mixed well in a final volume of 30 µL. All the PCR reactions were performed as follows: 1 cycle of 50 °C for 2 min and 95 °C for 10 min, followed by 40 cycles of 95 °C for 15 s and 60 °C for 1 min. The PCR products were subjected to a melting-curve analysis. The expression levels were normalized against a housekeeping gene, β-actin, and the expression levels of the genes in the DMSO treated cells were designated as 1.

A further assay addresses T1, recombinant PPARγ (Homo sapiens, UniProt P37231).
T1 construct: amino acid positions 107–477 for PPARγ; His tag (pET28a) (N); made in house; host or cells: E. coli BL21
T1 sequence (P37231 107-477 isoform P37231-2): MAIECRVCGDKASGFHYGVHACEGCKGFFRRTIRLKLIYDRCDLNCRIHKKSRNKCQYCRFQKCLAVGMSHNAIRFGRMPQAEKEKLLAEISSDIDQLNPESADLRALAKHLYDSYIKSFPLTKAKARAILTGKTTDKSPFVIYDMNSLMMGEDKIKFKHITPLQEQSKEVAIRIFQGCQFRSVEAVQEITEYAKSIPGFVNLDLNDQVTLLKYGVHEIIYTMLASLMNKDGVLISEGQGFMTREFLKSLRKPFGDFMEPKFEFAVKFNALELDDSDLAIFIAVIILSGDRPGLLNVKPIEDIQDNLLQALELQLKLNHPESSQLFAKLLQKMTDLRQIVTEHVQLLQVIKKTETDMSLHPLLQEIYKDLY
T1 sequence (Q09472 39-221 partner limits assumed): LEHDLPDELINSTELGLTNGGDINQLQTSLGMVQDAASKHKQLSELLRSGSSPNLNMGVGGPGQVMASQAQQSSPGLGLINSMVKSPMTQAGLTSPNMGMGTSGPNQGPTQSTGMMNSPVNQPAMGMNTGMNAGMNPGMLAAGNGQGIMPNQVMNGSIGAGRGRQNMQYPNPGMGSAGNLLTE
In words: ELISA PPARγ-binding assay (ligand-dependent binding of PPARγ to p300 coactivator). As to conditions: highest binding; p300-coated plate, absorbance 405 nm. On the technique in general: An ELISA detects its analyte on a solid surface through an enzyme-linked reagent.

Assay [3] relates to C2C12 muscle cells. In words: GLUT4 translocation assay (immunofluorescence). It is filed as cell-based. The conditions noted are these: for GLUT4 translocation to the plasma membrane / time at which GLUT4 translocation occurs after treatment: 2 µM compound.
Source text: as §1
The differentiated C2C12 muscle cells cultured in 8-well chamber slides were treated with DMSO, insulin and S. macrophylla compounds for 15, 30, 60 and 120 min in DMEM low glucose + 0.1% (w/v) BSA. The cells were then fixed with 4% (v/v) paraformaldehyde, washed with MAXwash^TM washing medium (Active Motif, Tokyo, Japan) and blocked with Maxblock^TM blocking medium (Active Motif). The cells were incubated with the GLUT4 antibody for 16 h at 4 °C and then with the fluorescent conjugated secondary antibody for 2 h at room temperature. 100 µL of Fluoroshield^TM with DAPI (Sigma-Aldrich, St. Louis, MO, USA) was added to each well and mounted with a cover slip for imaging.

For assay [4], the system named is 3T3-L1 preadipocyte cells. The experiment in a line: Adipocyte differentiation assay, Oil Red O staining of lipid droplets. It is filed as cell-based. As to conditions: for induction of 3T3-L1 differentiation into lipid-producing adipocytes: 2–50 µM, lower level than insulin and rosiglitazone; for ORO stained lipid droplets, fold higher than vehicle treated cells: compounds 2–50 µM; for first appearance of lipid droplets after treatment: 3T3-L1 cells. On the procedure: Figure 4 The semi-quantification of lipid droplets produced by differentiated 3T3-L1 cells at day 7 after the compound treatment. The quantification was performed by dissolving the cells in isopropanol and measuring the absorbance read out at 510 nm. […] The symbol ** denotes a significant difference at p < 0.01 compared with DMSO (Tukey’s test, n = 3).
3T3-L1 and C2C12 cells were purchased from the American Type Culture Collection (Manassas, VA, USA). The 3T3-L1 and C2C12 cells were maintained in DMEM medium supplemented with 10% (v/v) bovine serum and 10% (v/v) fetal bovine serum (FBS), respectively. The differentiation of adipocytes was initiated two days after the cells reached confluence by adding 0.5 mM isobutyl methylxanthine (IBMX), 1 µM dexamethasone and 1 µg/mL insulin to DMEM containing 10% (v/v) FBS. Two days later, the differentiation medium was replaced by DMEM containing 10% (v/v) FBS and 1 µg/mL insulin. These differentiated cells were stabilized in DMEM + 10% (v/v) FBS for another 2 days. C2C12 myocytes were induced to differentiate by substituting 10% (v/v) FBS with 10% (v/v) horse serum once the cells reached confluence. Fresh differentiation medium was replaced every two days until the myotube formation was complete.
Adipocyte differentiation is one of the major cellular responses upon PPARγ activation. 3T3-L1 pre-adipocyte cells were seeded on 24-well plates at 5 × 10^4 cells per well. Two days after reaching confluence, the cells were triggered to differentiate by insulin (positive control), DMSO (negative control), TZD, and the three natural compounds isolated from S. macrophylla (6OA, DS and Sw). […] For visualization, lipid droplets were stained by Oil Red O (ORO). The trapped ORO between the lipid droplets was then dissolved in absolute isopropanol, and the absorbance of the dissolved ORO was semi-quantitatively measured by a SpectraMax M5 multi-detection microplate reader (Molecular Devices) at a wavelength of 510 nm.

In another assay the test system is diabetic rats. As to conditions: diabetic rats ref 5; cited from earlier work.

Procedure for recombinant PPARγ: The truncated p300 recombinant protein included a specific binding domain, LXXLL, for protein-protein interactions between p300 and PPARγ.
The ELISA binding assay used is based on the principle of binding between the ligand-dependent PPARγ and its coactivator. Briefly, 5 µg of purified recombinant p300, a PPARγ coactivator, was used to coat a 96-well microtitre plate in the presence of coating buffer (150 mM Na2CO3, 350 mM NaHCO3, pH 9.6). The plate was incubated for 2 h at room temperature. Nonspecific binding sites were blocked with 100 µL of blocking buffer [2% (w/v) BSA in 10 mM PBS, pH 7.2] for 2 h at room temperature. The recombinant PPARγ cell lysate was prepared by using the freeze/thaw cell lysis method [37]. […] These mixtures were added to the p300-coated 96-well plate, which was then incubated for 1 h at 37 °C. The presence of the PPARγ ligand led to the formation of a p300-PPARγ-ligand complex. The detection of this complex was performed through the addition of 100 µL of anti-PPARγ antibody (1:1000 dilutions) and incubation for 1 h at room temperature. Subsequently, 100 µL of the AP conjugated donkey anti-goat antibody (1:1000 dilutions) was added into each well, and the plates were at room temperature for 1 h. The pNPP substrate solution (100 µL) was added to each well and incubated for 1 h at room temperature in the dark. Finally, 2.0 N sulphuric acid (50 µL per well) was added to each well to stop the enzymatic reaction. The absorbance at 405 nm was detected with a microplate reader (SpectraMax M5, Molecular Devices, Sunnyvale, CA, USA). Throughout the procedures, the microtitre plate was washed three times with washing buffer [10 mM PBS, pH 7.2, containing 0.1% (v/v) Tween 20] after each incubation step.

Turning to `COC(=O)C(OC(C)=O)C1C(C)(C)C(O)C2CC3=C4CC(=O)O[C@@H](c5ccoc5)[C@@]4(C)CCC3[C@@]1(C)C2=O` (stereo partly shown) [6OA, 6-O-acetylswietenolide], the “glucose (2-NBDG) uptake” value in the assay on C2C12 muscle cells [1] is listed as “significant increase”. Also, in assay [2], the “PPARγ mRNA expression, fold elevation” value is “five- to six” and the “expression levels of adipogenic markers (adiponectin, adipsin, PPARγ, GLUT4)” value (shortened to “expression levels of adipogenic markers”) is reported as “increase”. Further, the “fold increase of binding between PPARγ and coactivator compared to vehicle (DMSO)” value (shortened to “fold increase”) on recombinant PPARγ amounted to 50 fold. In the assay with C2C12 muscle cells [3], the “GLUT4 translocation to the plasma membrane” value was “increase in GLUT4 translocation” and the “time at which GLUT4 translocation occurs after treatment” value (shortened to “time … after treatment”) was 15 min. Moreover, the “induction of 3T3-L1 differentiation into lipid-producing adipocytes” value in assay [4] was “induce 3T3-L1 cells differentiation into lipid-producing adipocytes”. Also, in assay [4] (day 7), the “ORO stained lipid droplets, fold higher than vehicle treated cells” value is recorded as 1.3–1.6 fold.
`C/C=C(\C)C(=O)OC1C2C=C3C(CC[C@@]4(C)C3CC(=O)O[C@H]4c3ccoc3)[C@@](C)(C2=O)C(C(O)C(=O)OC)C1(C)C` (stereo partly shown) [Sw, swietenine]: the “glucose (2-NBDG) uptake” value with C2C12 muscle cells [1] is “significant increase”. In assay [2], the “PPARγ mRNA expression, fold elevation” value was “five- to six” and the “expression levels of adipogenic markers” value is listed as “increase”. The “elevated cholesterol and triglyceride levels” value in the assay on diabetic rats is on record as “attenuate”. Further, on recombinant PPARγ, the “fold increase” value was 36 fold. In the assay with C2C12 muscle cells [3], the “GLUT4 translocation to the plasma membrane” value is reported as “increase in GLUT4 translocation” and the “time … after treatment” value was 15 min. Besides, the “induction of 3T3-L1 differentiation into lipid-producing adipocytes” value in assay [4] is “induce 3T3-L1 cells differentiation into lipid-producing adipocytes”. For the same compound, in assay [4] (day 7), the “ORO stained lipid droplets, fold higher than vehicle treated cells” value is 1.3–1.6 fold.
On to “Insulin: known adipocyte differentiation inducer, positive control [reference compound]”, for which the “expression levels of adipogenic markers” value in assay [2] was “significantly increased”. Besides, the “time at which GLUT4 translocation occurs after stimulation” value in the assay on C2C12 muscle cells [3] (200 nM insulin) is 15 min. In assay [4] (1 µM insulin, day 7), the “ORO stained lipid droplets, fold higher than vehicle (DMSO)” value was found to be 4.8 fold. Besides, the “first appearance of lipid droplets after treatment” value in assay [4] is 3 days.
Consider `COC(=O)C(OC(C)=O)C1C(C)(C)C(OC(C)=O)C2CC3=C4CC(=O)O[C@@H](c5ccoc5)[C@@]4(C)CCC3[C@@]1(C)C2=O` (stereo partly shown) [DS, diacetyl swietenolide], for which the “glucose (2-NBDG) uptake” value in the assay with C2C12 muscle cells [1] is recorded as “significant increase”. In assay [2], the “PPARγ mRNA expression, fold elevation” value is listed as “five- to six” and the “expression levels of adipogenic markers” value is reported as “increase”. Besides, the “fold increase” value at recombinant PPARγ was 38 fold. Further, in the assay on C2C12 muscle cells [3], the “GLUT4 translocation to the plasma membrane” value is listed as “increase in GLUT4 translocation” and the “time … after treatment” value is no less than 60 min. Further, the “induction of 3T3-L1 differentiation into lipid-producing adipocytes” value in assay [4] is on record as “induce 3T3-L1 cells differentiation into lipid-producing adipocytes”. Besides, in assay [4] (day 7), the “ORO stained lipid droplets, fold higher than vehicle treated cells” value is recorded as 1.3–1.6 fold.
As to `CN(CCOc1ccc(CC2SC(=O)NC2=O)cc1)c1ccccn1` (stereo not shown) [Rosiglitazone, rosiglitazone, reference compound], in assay [2], the “expression levels of adipogenic markers” value is recorded as “increase”. Moreover, the “first appearance of lipid droplets after treatment” value in assay [4] stood at 5 days.
